Test results reported in patent US7655414B2, “Determination of responders to chemotherapy” (Hoffman La-Roche Inc., priority 2005, dated 2010).

Legend:
[1] = test system: non-small-cell lung cancer (NSCLC); details: single-agent erlotinib, second- or third-line therapy; placebo 4.7 months; statistically significant improvement; cited from earlier work
[2] = test system: first-line NSCLC patients; details: erlotinib 150 mg/day plus gemcitabine and cisplatin compared with gemcitabine and cisplatin alone; cited from earlier work
NSCLC = details: erlotinib plus carboplatin and paclitaxel; cited from earlier work
[3] = test system: non-small-cell lung cancer (NSCLC); assay: Clinical study BO16411: Tarceva plus gemcitabine/cisplatin versus placebo plus gemcitabine/cisplatin, with pMAPK/pAKT IHC biomarker subset; assay type: in vivo, human
Procedure: Biomarker analyses were performed on a sample subset of 141 patients, for which formalin-fixed paraffin embedded (FFPE) tissue blocks from initial diagnosis had been received.
One pathologist evaluated all immunostainings. The nuclear staining intensity (pAKT, pMAPK) was estimated by visual inspection in a four step scale (0, 1, 2, 3). In addition to nuclear staining intensity, the percentage of positive cells, and the reason for analysis failure (i.e. lack of tumor cells in the tissue spot or lack of the tissue spot on the TMA slide) was recorded. Exploratory Statistical Analysis:
The basic statistics and interdependencies of the different markers were descriptively investigated. Methodological analyses comparing different measurement approaches, e.g. for IHC, were performed with regard to reliability and validity.
The p-values emerging from these analyses are not to be interpreted in a confirmative sense; they are to be seen as a special descriptive tool in order to guide the exploration towards an efficient candidate prediction rule. Markers were evaluated on a univariate level regarding their potential for prediction (e.g. search for cut-offs) of the clinical endpoints. Further multivariate techniques (e.g. Linear Discriminant Analysis, Multiple Logistic Regression, Principal Component Analysis with Rotation, Cluster Analysis, CART methodology) were employed in order to study combinations of markers. Biomarker and response correlations with clinical covariates were investigated. Candidate groupings derived from biomarkers were checked with time to event variables (Kaplan-Meier curves, Cox proportional hazard model, logrank test).
The patient subset with samples for biomarker analysis was compared to the overall study population regarding baseline patient characteristics and clinical outcome parameters.
For determining correlation between pMAPK expression and clincal outcome, cut-off values were established by descriptive statistical analysis: Franklin H-score was determined by combining staining intensity and percentage of stained tumor cells (pMAPK_hsco=(pMAPK_Nuclear_Staining+1)*pMAPK_Nuclear_Pos_Cells; range: 0-400). “Positive” pMAPK staining was defined by H-scores of =/>100, else the staining was “negative”.
“Positive” pAKT staining was defined by H-scores of =/>300, else the staining was “negative”.

C#Cc1cccc(Nc2ncnc3cc(OCCOC)c(OCCOC)cc23)c1 [Tarceva®, N-(3-ethynylphenyl)-6,7-bis(2-methoxyethoxy) quinazolin-4-amine]
Survival [1]: 6.7 months
Benefit on primary (survival duration) and secondary endpoints [2]: no demonstrable benefit
Outcome compared with TALENT (no benefit of adding erlotinib) (NSCLC): Identical results
HR, benefit from chemotherapy/Tarceva combo ([3]; "Positive pMAPK" patients (H-score =/>100), p: 0.0516): 0.500
Hazard Ratio, time to progression/death ([3]; COX model without covariates, pAKT1 data set, trtgr only): 1.269
Hazard Ratio, time to progression/death ([3]; COX model without covariates, pMAPK data set, trtgr only): 1.320
Hazard Ratio, time to progression/death ([3]; COX model, trtgr in patients with pAKT1 H-Score ≧ 300): 1.262
Hazard Ratio, time to progression/death ([3]; COX model, trtgr in patients with pMAPK H-Score < 100): 1.634
Hazard Ratio, time to progression/death ([3]; COX model, trtgr in patients with pMAPK H-Score ≧ 100): 0.773
Responders (%) ([3]; Main clinical population, Tarceva + gemcitabine/cisplatin arm (N = 396)): 42.4%
Responders (%) ([3]; Patient subset with IHC/FISH biomarker data, Tarceva + gemcitabine/cisplatin arm (N = 46)): 43.5%
